Results: PubChem BioAssay (NCI)
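Values below derive from 48-hour exposures of cells grown in 96-well plates, with endpoints linearly interpolated between the two concentrations bracketing the appropriate inhibition level. TGI: total growth inhibition.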

Assays:
Assay in all cases: NCI anticancer screen, dose series, 48 h
786-0 renal = tested on: 786-0 renal
A549 NSCLC = tested on: A549 NSCLC
ACHN renal = tested on: ACHN renal
CAKI-1 renal = tested on: CAKI-1 renal
CCRF-CEM leukemia = tested on: CCRF-CEM leukemia
COLO 205 colon = tested on: COLO 205 colon
DLD-1 colon = tested on: DLD-1 colon
DMS 114 small cell lung = tested on: DMS 114 small cell lung
DMS 273 small cell lung = tested on: DMS 273 small cell lung
EKVX NSCLC = tested on: EKVX NSCLC
HCC-2998 colon = tested on: HCC-2998 colon
HCT-116 colon = tested on: HCT-116 colon
HCT-15 colon = tested on: HCT-15 colon
HL-60(TB) leukemia = tested on: HL-60(TB) leukemia
HOP-62 NSCLC = tested on: HOP-62 NSCLC
HT29 colon = tested on: HT29 colon
IGROV1 ovarian = tested on: IGROV1 ovarian
K-562 leukemia = tested on: K-562 leukemia
KM12 colon = tested on: KM12 colon
KM20L2 colon = tested on: KM20L2 colon
LOX IMVI melanoma = tested on: LOX IMVI melanoma
LXFL 529 NSCLC = tested on: LXFL 529 NSCLC
M14 melanoma = tested on: M14 melanoma
M19-MEL melanoma = tested on: M19-MEL melanoma
MALME-3M melanoma = tested on: MALME-3M melanoma
MOLT-4 leukemia = tested on: MOLT-4 leukemia
NCI-H226 lung = tested on: NCI-H226 lung
NCI-H23 lung = tested on: NCI-H23 lung
NCI-H460 lung = tested on: NCI-H460 lung
NCI-H522 lung = tested on: NCI-H522 lung
OVCAR-3 ovarian = tested on: OVCAR-3 ovarian
OVCAR-4 ovarian = tested on: OVCAR-4 ovarian
OVCAR-5 ovarian = tested on: OVCAR-5 ovarian
OVCAR-8 ovarian = tested on: OVCAR-8 ovarian
RPMI-8226 leukemia = tested on: RPMI-8226 leukemia
RXF 393 renal = tested on: RXF 393 renal
RXF-631 renal = tested on: RXF-631 renal
SF-268 CNS = tested on: SF-268 CNS
SF-295 CNS = tested on: SF-295 CNS
SF-539 CNS = tested on: SF-539 CNS
SK-MEL-2 melanoma = tested on: SK-MEL-2 melanoma
SK-MEL-28 melanoma = tested on: SK-MEL-28 melanoma
SK-OV-3 ovarian = tested on: SK-OV-3 ovarian
SN12C renal = tested on: SN12C renal
SNB-19 CNS = tested on: SNB-19 CNS
SNB-75 CNS = tested on: SNB-75 CNS
SR leukemia = tested on: SR leukemia
SW-620 colon = tested on: SW-620 colon
TK-10 renal = tested on: TK-10 renal
U251 CNS = tested on: U251 CNS
UACC-257 melanoma = tested on: UACC-257 melanoma
UACC-62 melanoma = tested on: UACC-62 melanoma
UO-31 renal = tested on: UO-31 renal
XF 498 CNS = tested on: XF 498 CNS
A498 renal = tested on: A498 renal
HOP-92 NSCLC = tested on: HOP-92 NSCLC
SK-MEL-5 melanoma = tested on: SK-MEL-5 melanoma

Measured: TGI

CC(=O)COC(=O)CC(C)=O
> 100 µM: 786-0 renal | A549 NSCLC | ACHN renal | CAKI-1 renal | CCRF-CEM leukemia | COLO 205 colon | DLD-1 colon | DMS 114 small cell lung | DMS 273 small cell lung | EKVX NSCLC | HCC-2998 colon | HCT-116 colon | HCT-15 colon | HL-60(TB) leukemia | HOP-62 NSCLC | HT29 colon | IGROV1 ovarian | K-562 leukemia | KM12 colon | KM20L2 colon | LOX IMVI melanoma | LXFL 529 NSCLC | M14 melanoma | M19-MEL melanoma | MALME-3M melanoma | MOLT-4 leukemia | NCI-H226 lung | NCI-H23 lung | NCI-H460 lung | NCI-H522 lung | OVCAR-3 ovarian | OVCAR-4 ovarian | OVCAR-5 ovarian | OVCAR-8 ovarian | RPMI-8226 leukemia | RXF 393 renal | RXF-631 renal | SF-268 CNS | SF-295 CNS | SF-539 CNS | SK-MEL-2 melanoma | SK-MEL-28 melanoma | SK-OV-3 ovarian | SN12C renal | SNB-19 CNS | SNB-75 CNS | SR leukemia | SW-620 colon | TK-10 renal | U251 CNS | UACC-257 melanoma | UACC-62 melanoma | UO-31 renal | XF 498 CNS

CC(=O)N(C(C)=O)c1c(N)n(C)c(=O)[nH]c1=O
> 100 µM: 786-0 renal | A498 renal | A549 NSCLC | ACHN renal | CAKI-1 renal | CCRF-CEM leukemia | COLO 205 colon | DLD-1 colon | DMS 114 small cell lung | DMS 273 small cell lung | EKVX NSCLC | HCC-2998 colon | HCT-116 colon | HCT-15 colon | HL-60(TB) leukemia | HOP-92 NSCLC | HT29 colon | IGROV1 ovarian | K-562 leukemia | KM12 colon | KM20L2 colon | LOX IMVI melanoma | LXFL 529 NSCLC | M14 melanoma | M19-MEL melanoma | MALME-3M melanoma | MOLT-4 leukemia | NCI-H226 lung | NCI-H23 lung | NCI-H460 lung | OVCAR-3 ovarian | OVCAR-4 ovarian | OVCAR-5 ovarian | OVCAR-8 ovarian | RPMI-8226 leukemia | RXF 393 renal | RXF-631 renal | SF-268 CNS | SF-295 CNS | SF-539 CNS | SK-MEL-2 melanoma | SK-MEL-28 melanoma | SK-MEL-5 melanoma | SN12C renal | SNB-19 CNS | SW-620 colon | UACC-257 melanoma | UACC-62 melanoma | UO-31 renal | XF 498 CNS
